The source made the active and inactive calls. The rule behind the calls is not given here.
Legend:
[1] = molecular target: T1, Glutaminase kidney isoform, mitochondrial (Homo sapiens, UniProt O94925); experiment: Inhibition of recombinant KGA (unknown origin) using glutamine as substrate
T1 sequence (O94925 whole entry): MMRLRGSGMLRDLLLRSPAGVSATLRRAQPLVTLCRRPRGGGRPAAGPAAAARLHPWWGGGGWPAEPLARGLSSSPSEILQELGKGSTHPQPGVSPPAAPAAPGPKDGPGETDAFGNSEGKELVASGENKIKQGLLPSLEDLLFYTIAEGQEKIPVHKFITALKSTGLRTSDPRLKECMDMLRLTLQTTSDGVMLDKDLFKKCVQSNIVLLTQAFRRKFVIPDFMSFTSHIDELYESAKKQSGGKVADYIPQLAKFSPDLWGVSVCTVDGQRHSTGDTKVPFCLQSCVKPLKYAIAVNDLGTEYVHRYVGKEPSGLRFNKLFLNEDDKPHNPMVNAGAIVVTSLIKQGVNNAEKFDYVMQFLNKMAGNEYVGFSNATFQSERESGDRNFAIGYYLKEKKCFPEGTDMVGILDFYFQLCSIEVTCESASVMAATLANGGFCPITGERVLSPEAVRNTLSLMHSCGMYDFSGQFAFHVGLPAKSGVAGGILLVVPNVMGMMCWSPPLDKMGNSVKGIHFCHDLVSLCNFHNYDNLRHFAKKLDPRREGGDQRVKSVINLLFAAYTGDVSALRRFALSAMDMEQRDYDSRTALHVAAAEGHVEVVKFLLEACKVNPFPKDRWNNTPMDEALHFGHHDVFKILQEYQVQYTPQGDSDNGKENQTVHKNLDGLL

[2] = molecular target: T2, Glutaminase kidney isoform, mitochondrial (Homo sapiens) (UniProt O94925); experiment: Competitive inhibition of recombinant KGA (unknown origin) at 40 uM using varying levels of glutamine substrate measured within 1 to 4 mins
T2 sequence (whole entry): T1 sequence (O94925 whole entry)

[3] = molecular target: T1, Glutaminase kidney isoform, mitochondrial; experiment: Binding affinity to NT-647-NHS-labelled KGA (unknown origin) after 10 mins by microscale thermophoresis method
HCC827 = experiment: Cytotoxicity against human erlotinib-resistant HCC827 cells assessed as growth inhibition after 48 hrs by CCK8 assay; format: functional, cell-based; conditions: HCC827, 48 h
HT-1080 = experiment: Cytotoxicity against human HT1080 cells assessed as growth inhibition after 48 hrs by CCK8 assay; format: functional, cell-based; conditions: HT-1080, 48 h
L02 = experiment: Cytotoxicity against human LO2 cells assessed as growth inhibition after 48 hrs by CCK8 assay; format: cell-based; conditions: L02, 48 h
L929 = experiment: Cytotoxicity against mouse L929 cells assessed as growth inhibition after 48 hrs by CCK8 assay; format: cell-based; conditions: L929, 48 h
Vero = experiment: Cytotoxicity against monkey Vero cells assessed as growth inhibition after 48 hrs by CCK8 assay; format: cell-based; conditions: Chlorocebus sabaeus

Row | SMILES | IC50 [1] [µM] | inhibition [2] | Kd [3] [µM] | IC50 (HCC827) [µM] | IC50 (HT-1080) [µM] | IC50 (L02) [µM] | IC50 (L929) [µM] | IC50 (Vero) [µM]
1 | O=C(Cc1ccccc1)Nc1nnc(CCSCCc2nnc(NC(=O)Cc3ccccc3)s2)s1 |  |  |  | 42.4 | 47.7 |  |  | 
2 | O=C(Cc1cccc(OC(F)(F)F)c1)Nc1ccc(CCCCc2nnc(NC(=O)Cc3ccccn3)s2)nn1 |  |  |  | 51.4 | 44.4 |  |  | 
3 | C[C@@H]([C@H]1CC[C@H]2[C@@H]3CC=C4C[C@@H](O[C@@H]5O[C@H](CO[C@@H]6O[C@H](CO)[C@@H](O)[C@H](O)[C@H]6O)[C@@H](O)[C@H](O)[C@H]5O)C[C@H](O)[C@]4(C)[C@H]3CC[C@]12C)[C@H]1C[C@](C)(O)[C@](C)(O)C(=O)O1 | > 100 |  |  | > 200 | > 200 |  |  | 
4 | CO[C@@H]1O[C@@H]([C@@H](C)[C@H]2CC[C@H]3[C@@H]4CC=C5C[C@@H](O[C@@H]6O[C@H](CO[C@@H]7O[C@H](CO)[C@@H](O)[C@H](O)[C@H]7O)[C@@H](O)[C@H](O)[C@H]6O)C[C@H](O)[C@]5(C)[C@H]4CC[C@]23C)C[C@](C)(OC)[C@]1(C)O | > 100 |  |  | > 200 | > 200 |  |  | 

Now from value to compound, other results behind:

Row | IC50 [1] [µM] | inhibition [2] | Kd [3] [µM] | SMILES | IC50 (HCC827) [µM] | IC50 (HT-1080) [µM] | IC50 (L02) [µM] | IC50 (L929) [µM] | IC50 (Vero) [µM]
5 | 9.89 | Active | 4.95 | CC(=O)O[C@H]1C[C@H]([C@H](C)[C@H]2C[C@]3(C)O[C@]3(C)[C@H](O)O2)[C@@]2(C)CC[C@H]3[C@@H](C[C@@H]4O[C@]45[C@@H](O)C=CC(=O)[C@]35C)[C@H]12 | 2.76 | 6.99 | 10.4 | 10.4 | 12.4
6 | > 100 |  |  | C[C@@H]([C@H]1CC[C@H]2[C@@H]3CC=C4C[C@@H](O[C@@H]5O[C@H](CO[C@@H]6O[C@H](CO)[C@@H](O)[C@H](O)[C@H]6O)[C@@H](O)[C@H](O)[C@H]5O)C[C@H](O)[C@]4(C)[C@H]3CC[C@]12C)[C@H]1C[C@@](C)(O)[C@](C)(O)C(O)O1 (some centres not stated) | > 200 | > 200 |  |  | 
7 | > 100 |  |  | C[C@@H]([C@H]1CC[C@H]2[C@@H]3CC=C4C[C@@H](O)C[C@H](O)[C@]4(C)[C@H]3CC[C@]12C)[C@H]1C[C@@](C)(O)[C@](C)(O)C(O)O1 (some centres not stated) | > 200 | > 200 |  |  | 
8 | > 100 |  |  | C[C@@H]([C@H]1CC[C@H]2[C@@H]3CC=C4C[C@@H](O)C[C@H](O)[C@]4(C)[C@H]3CC[C@]12C)[C@H]1C[C@](C)(O)[C@](C)(O)C(=O)O1 | > 200 | > 200 |  |  | 

Source: ChEMBL document CHEMBL3994651, “Physapubescin, a natural withanolide as a kidney-type glutaminase (KGA) inhibitor” (Bioorg Med Chem Lett, 2017)
